Read-outs that look alike come from different tables or passages of the source.
Biological target: T1, AgKv2.1 (voltage-gated potassium channel Kv2.1) (Anopheles gambiae, UniProt Q5TT67)
T1 construct: gene 1274312
T1 sequence (Q5TT67 1-1014): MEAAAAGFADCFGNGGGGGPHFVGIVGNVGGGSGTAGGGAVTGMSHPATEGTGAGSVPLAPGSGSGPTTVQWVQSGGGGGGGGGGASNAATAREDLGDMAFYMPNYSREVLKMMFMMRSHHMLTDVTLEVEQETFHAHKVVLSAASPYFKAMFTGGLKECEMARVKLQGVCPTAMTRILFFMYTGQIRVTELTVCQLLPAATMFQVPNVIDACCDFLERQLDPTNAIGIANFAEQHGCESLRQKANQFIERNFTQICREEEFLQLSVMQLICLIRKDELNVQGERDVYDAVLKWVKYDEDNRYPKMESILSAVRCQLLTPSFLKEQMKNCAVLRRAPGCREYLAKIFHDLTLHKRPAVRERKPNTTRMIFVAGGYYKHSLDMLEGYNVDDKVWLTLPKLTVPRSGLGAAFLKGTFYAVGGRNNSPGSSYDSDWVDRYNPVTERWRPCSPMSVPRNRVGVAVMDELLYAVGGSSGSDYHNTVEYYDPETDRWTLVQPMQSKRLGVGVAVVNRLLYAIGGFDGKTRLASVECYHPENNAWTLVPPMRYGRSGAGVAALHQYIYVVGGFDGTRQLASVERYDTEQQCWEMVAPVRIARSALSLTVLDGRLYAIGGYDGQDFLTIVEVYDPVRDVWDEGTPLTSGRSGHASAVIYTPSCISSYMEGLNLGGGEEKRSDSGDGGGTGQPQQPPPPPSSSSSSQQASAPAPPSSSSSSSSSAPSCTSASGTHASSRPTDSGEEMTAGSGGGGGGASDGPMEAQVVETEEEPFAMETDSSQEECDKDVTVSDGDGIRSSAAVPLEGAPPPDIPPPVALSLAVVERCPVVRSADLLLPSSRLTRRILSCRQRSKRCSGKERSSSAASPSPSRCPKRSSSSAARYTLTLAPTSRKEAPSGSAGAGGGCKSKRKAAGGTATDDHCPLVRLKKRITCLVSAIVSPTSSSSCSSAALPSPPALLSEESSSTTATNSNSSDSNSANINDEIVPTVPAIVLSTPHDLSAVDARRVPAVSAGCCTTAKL
Experiment: whole-cell patch-clamp of HEK-293 cells expressing AgKv2.[…], current inhibition at +[…] mV
Assay type: cell-based

| SMILES | IC50 (read-out: Patch Clamp / IC50 /) | IC50 |
| --- | --- | --- |
| CCCCCC(O)CCCC(=O)O (stereo not drawn) [5-HDC] | 30 µM | – |
| CCCCCCCCCC(=O)O [decanoic acid] | – | 0.61 µM |
| CN(C)c1cccc2c(S(=O)(=O)NCCCCCCCCCCC(=O)O)cccc12 [DAUDA] | 1.18 µM | – |
